The values below come from patent US9676701B2, “Cyclopropylamine derivatives useful as LSD1 inhibitors” (Oryzon Genomics, S.A., priority 2010, dated 2017).

SMILES strings stand for the structures. Where a name gives a salt, the structure may show the parent alone.

For assay [1], the target named is MAO-A (Homo sapiens (Human), UniProt P21397). Conditions: read-out: MAO-A (Ki).
The target in assay [2] is MAO-B (Homo sapiens (Human), UniProt P27338). To be noted: read-out: MAO-B (Ki).
The target of assay [3] is Human recombinant LSD1 protein (Homo sapiens (Human), UniProt O60341). As to the kind of experiment: biochemical.

Sequence of MAO-B (P27338 whole entry): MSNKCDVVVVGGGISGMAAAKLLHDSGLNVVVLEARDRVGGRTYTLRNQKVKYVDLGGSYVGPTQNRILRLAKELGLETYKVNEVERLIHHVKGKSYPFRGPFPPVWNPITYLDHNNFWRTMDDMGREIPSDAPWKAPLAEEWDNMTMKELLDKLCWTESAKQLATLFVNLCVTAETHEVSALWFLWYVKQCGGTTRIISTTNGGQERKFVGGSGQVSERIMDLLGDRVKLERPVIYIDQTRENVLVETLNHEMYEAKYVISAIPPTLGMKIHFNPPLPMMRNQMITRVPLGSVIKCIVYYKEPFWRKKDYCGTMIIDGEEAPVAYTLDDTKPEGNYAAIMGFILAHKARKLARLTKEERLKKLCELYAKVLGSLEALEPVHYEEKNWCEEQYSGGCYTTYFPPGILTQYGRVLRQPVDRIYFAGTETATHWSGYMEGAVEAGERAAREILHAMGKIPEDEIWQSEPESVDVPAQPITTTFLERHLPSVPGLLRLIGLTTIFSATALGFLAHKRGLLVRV
Sequence of MAO-A (P21397 whole entry): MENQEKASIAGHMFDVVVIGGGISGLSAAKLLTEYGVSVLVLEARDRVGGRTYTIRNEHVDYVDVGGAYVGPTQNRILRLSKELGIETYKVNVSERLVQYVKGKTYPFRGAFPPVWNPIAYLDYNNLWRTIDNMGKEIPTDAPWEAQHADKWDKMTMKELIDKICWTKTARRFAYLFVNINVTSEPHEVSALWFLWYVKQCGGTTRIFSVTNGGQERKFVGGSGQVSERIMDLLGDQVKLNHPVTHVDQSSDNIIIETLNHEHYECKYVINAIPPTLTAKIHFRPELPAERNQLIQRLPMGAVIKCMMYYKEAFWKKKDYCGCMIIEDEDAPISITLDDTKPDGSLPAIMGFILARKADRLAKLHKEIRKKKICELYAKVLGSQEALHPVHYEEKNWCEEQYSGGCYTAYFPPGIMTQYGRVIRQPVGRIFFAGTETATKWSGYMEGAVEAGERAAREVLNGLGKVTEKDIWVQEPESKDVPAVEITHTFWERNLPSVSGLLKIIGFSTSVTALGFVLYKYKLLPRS

For `N[C@H]1C[C@@H]1c1ccc(-c2cccc(C(F)(F)F)c2)cc1` (relative stereo) [Example 1, (trans)-2-(3′-(trifluoromethyl)biphenyl-4-yl)cyclopropanamine hydrochloride], the Ki in assay [1] was in the range of 1000 to 40000 nM; in assay [2] it was 1000 to 40000 nM; in assay [3], 100 to 1000 nM.

`N[C@H]1C[C@@H]1c1ccc(-c2ccc(O)cc2)cc1` (relative stereo) [Example 3, 4′-((trans)-2-aminocyclopropyl)biphenyl-4-ol hydrochloride]: the Ki lay in the range of 1000 to 40000 nM in assay [1], 1000 to 40000 nM in assay [2] and 100 to 1000 nM in assay [3].

Consider `N[C@H]1C[C@@H]1c1ccc(-c2cccc(O)c2)cc1` (relative stereo) [Example 4, 4′-((trans)-2-aminocyclopropyl)biphenyl-3-ol hydrochloride], for which the Ki was 1000 to 40000 nM in assay [1], 1000 to 40000 nM in assay [2] and 1 to 100 nM in assay [3].

For `N#Cc1ccc(-c2ccc([C@H]3C[C@@H]3N)cn2)cc1` (relative stereo) [Example 12, 4-(5-((trans)-2-aminocyclopropyl)pyridin-2-yl)benzonitrile dihydrochloride], the Ki in assay [1] was 1000 to 40000 nM; in assay [2], 1000 to 40000 nM; in assay [3], 100 to 1000 nM.

With `N#Cc1cccc(-c2ccc([C@H]3C[C@@H]3N)cn2)c1` (relative stereo) [Example 13, 3-(5-((trans)-2-aminocyclopropyl)pyridin-2-yl)benzonitrile hydrochloride], the Ki in assay [1] lay within 1000 to 40000 nM; in assay [2], 1000 to 40000 nM; in assay [3] it was 1 to 100 nM.

Consider `Cc1cccc(-c2ccc([C@H]3C[C@@H]3N)cn2)c1` (relative stereo) [Example 15, (Trans)-2-(6-m-tolylpyridin-3-yl)cyclopropanamine hydrochloride], for which the Ki in assay [1] was in the range of 1000 to 40000 nM; in assay [2] it was 1000 to 40000 nM; in assay [3], 100 to 1000 nM.

Turning to `N[C@H]1C[C@@H]1c1ccc(-c2ccc(O)cc2)nc1` (relative stereo) [Example 16, 4-(5-((trans)-2-aminocyclopropyl)pyridin-2-yl)phenol hydrochloride], the inhibition constant (Ki) is 1000 to 40000 nM in assay [1], 1000 to 40000 nM in assay [2] and 100 to 1000 nM in assay [3].

As to `N[C@H]1C[C@@H]1c1ccc(-c2cc(O)c(F)c(F)c2)nc1` (relative stereo) [Example 59, 5-(5-((trans)-2-aminocyclopropyl)pyridin-2-yl)-2,3-difluorophenol hydrochloride], the Ki in assay [2] was in the range of 1000 to 40000 nM; in assay [3], 1 to 100 nM.

For the compound `N[C@H]1C[C@@H]1c1ccc(-c2ccc(F)c(O)c2)cc1` (relative stereo) [Example 66, 4′-((trans)-2-aminocyclopropyl)-4-fluorobiphenyl-3-ol hydrochloride], the Ki in assay [3] was 1 to 100 nM.

On to `N[C@H]1C[C@@H]1c1ccc(-c2cc(O)cc(Cl)c2)cc1` (relative stereo) [Example 67, 4′-((trans)-2-aminocyclopropyl)-5-chlorobiphenyl-3-ol hydrochloride], for which the Ki in assay [3] lay in the range of 1 to 100 nM.

For `N[C@H]1C[C@@H]1c1ccc(-c2cccc(NS(=O)(=O)c3ccccc3)c2)cc1` (relative stereo) [Example 68, N-(4′-((trans)-2-aminocyclopropyl)biphenyl-3-yl)benzenesulfonamide hydrochloride], in assay [3], the Ki fell in the range of 1 to 100 nM.

In the case of `CC(C)S(=O)(=O)Nc1cccc(-c2ccc([C@H]3C[C@@H]3N)cc2)c1` (relative stereo) [Example 69, N-(4′-((trans)-2-aminocyclopropyl)biphenyl-3-yl)propane-2-sulfonamide hydrochloride], in assay [3], the Ki lay in the range of 1 to 100 nM.

`N[C@H]1C[C@@H]1c1ccc(-c2cccc(NS(=O)(=O)C(F)(F)F)c2)cc1` (relative stereo) [Example 103, N-(4′-((trans)-2-aminocyclopropyl)-[1,1′-biphenyl]-3-yl)-1,1,1-trifluoromethanesulfonamide hydrochloride]: the Ki in assay [3] was 100 to 1000 nM.
